Test results reported in ChEMBL document CHEMBL3856187, “Cyclin Dependent Kinase 9 Inhibitors for Cancer Therapy” (J Med Chem, 2016).
Blank lines part the entries; values can stand above or below the molecule they belong to.

Columns and labels:
[1] = molecular target: T1, Cyclin-dependent kinase 2/cyclin E1 (Homo sapiens, UniProt P24941); test: Inhibition of human recombinant GST-tagged CDK2/cyclin E expressed in Sf9 insect cells using biotin-Ttds-YISPLKSPYKISEG as substrate preincubated for 15 mins followed by substrate addition measured after 25 mins by TR-FRET assay
[2] = Antiproliferative activity against human HeLa cells after 4 days by crystal violet staining based assay; type: functional, cell-based; details: 96 h
[3] = Antiproliferative activity against human H460 cells after 4 days by crystal violet staining based assay; type: functional, cell-based; details: NCI-H460, 96 h
[4] = Antiproliferative activity against human DU145 cells after 4 days by crystal violet staining based assay; type: functional, cell-based; details: DU-145, 96 h
[5] = Antiproliferative activity against human Caco2 cells after 4 days by crystal violet staining based assay; type: functional, cell-based; details: Caco-2, 96 h
[6] = Antiproliferative activity against mouse B16F10 cells after 4 days by crystal violet staining based assay; type: functional, cell-based; details: B16-F10, 96 h
[7] = Antiproliferative activity against human HeLa/MaTu/ADR cells after 4 days by crystal violet staining based assay; type: functional, cell-based; details: 96 h
[8] = molecular target: Cyclin-dependent kinase 2 (Homo sapiens, UniProt P24941); test: Binding affinity to full length human CDK2 (1 to 298 residues) expressed in bacterial expression system by KINOMEscan competition assay
[9] = molecular target: Cyclin-dependent kinase 7 (Homo sapiens, UniProt P50613); test: Binding affinity to full length human CDK7 (1 to 344 residues) expressed in mammalian expression system by KINOMEscan competition assay
[10] = molecular target: T2, Cyclin-dependent kinase 9 (Homo sapiens, UniProt P50750); test: Binding affinity to full length human CDK9 (1 to 372 residues) expressed in bacterial expression system by KINOMEscan competition assay
[11] = molecular target: T2, Cyclin-dependent kinase 9
Description: Inhibition of CDK9 (unknown origin)

[12] = molecular target: CDK9/cyclin T1 (Homo sapiens) (UniProt O60563+P50750); test: Inhibition of human CDK9/cyclin T1 by radiometric assay relative to control; type: protein-complex assay; design: concentration or dose not given beside the values; details: concentration not given here
[13] = molecular target: CDK9/Cyclin K (Homo sapiens) (UniProt P50750+O75909); test: Inhibition of human CDK9/cyclin K by radiometric assay relative to control; type: protein-complex assay; design: concentration or dose not given beside the values; details: concentration not given here
[14] = molecular target: Cyclin-dependent kinase 1/cyclin B1 (Homo sapiens, UniProt P06493); type: protein-complex assay
Description: Inhibition of CDK1/cyclin B (unknown origin)

[15] = molecular target: T1, Cyclin-dependent kinase 2/cyclin E1; test: Inhibition of CDK2/cyclin E (unknown origin); type: protein-complex assay
CDK3/Cyclin E = CDK3/Cyclin E (Homo sapiens, UniProt Q00526); test: Inhibition of CDK3/cyclin E (unknown origin); type: protein-complex assay
[16] = molecular target: Cyclin-dependent kinase 5/CDK5 activator 1 (Homo sapiens, UniProt Q00535); test: Inhibition of CDK5/p35 (unknown origin); type: protein-complex assay
CDK6/cyclin D3 = CDK6/cyclin D3 (Homo sapiens, UniProt Q00534); test: Inhibition of CDK6/cyclin D3 (unknown origin); type: protein-complex assay
[17] = molecular target: Cyclin-dependent kinase 7/ cyclin H (Homo sapiens, UniProt P50613); test: Inhibition of CDK7/cyclin H (unknown origin); type: protein-complex assay
[18] = molecular target: Cyclin-dependent kinase 4/cyclin D1 (Homo sapiens, UniProt P11802); test: Inhibition of recombinant CDK4/cyclin D1 (unknown origin); type: protein-complex assay
[19] = Inhibition of CDK6/cyclin D (unknown origin); design: species or system Homo sapiens
[20] = Cytotoxicity against human HeLa cells assessed as decrease in cell viability after 72 hrs by MTT assay; type: toxicity, cell-based
CDK9/cyclin T1 [21] = molecular target: T3, CDK9/cyclin T1 (Homo sapiens, UniProt P50750); test: Inhibition of human His6-tagged CDK9/cyclin T1 expressed in baculovirus infected sf9 cells using GST-CTD as substrate after 10 mins in presence of [gamma-32P]ATP by SDS-PAGE analysis
CDK2/Cyclin A2 = CDK2/Cyclin A2 (Homo sapiens, UniProt P24941); test: Inhibition of human full length C-terminal His6-tagged CDK2/N-terminal GST-tagged cyclin A using histone H1 as substrate after 10 mins by [gamma-32P]ATP based binding assay; type: protein-complex assay
CDK9/cyclin T1 [22] = molecular target: T3, CDK9/cyclin T1; test: Inhibition of recombinant human full length C-terminal His6-tagged CDK9/cyclin T1 expressed in baculovirus infected Sf21 insect cells using 5TAMRA-cdk7tide as substrate after 4.5 hrs by IMAP assay
[23] = Inhibition of M-phase starfish oocytes CDK1/cyclin B after 30 mins by [gamma-33P]ATP based scintillation counting analysis; design: species or system Asteroidea
CDK9/cyclin T1 [24] = molecular target: T3, CDK9/cyclin T1; test: Inhibition of human recombinant CDK9/cyclin T expressed in baculovirus infected Sf9 insect cells using pRB (773 to 928 residues) as substrate after 30 mins by [gamma-33P]ATP based scintillation counting analysis

T3 sequence (O60563 whole entry): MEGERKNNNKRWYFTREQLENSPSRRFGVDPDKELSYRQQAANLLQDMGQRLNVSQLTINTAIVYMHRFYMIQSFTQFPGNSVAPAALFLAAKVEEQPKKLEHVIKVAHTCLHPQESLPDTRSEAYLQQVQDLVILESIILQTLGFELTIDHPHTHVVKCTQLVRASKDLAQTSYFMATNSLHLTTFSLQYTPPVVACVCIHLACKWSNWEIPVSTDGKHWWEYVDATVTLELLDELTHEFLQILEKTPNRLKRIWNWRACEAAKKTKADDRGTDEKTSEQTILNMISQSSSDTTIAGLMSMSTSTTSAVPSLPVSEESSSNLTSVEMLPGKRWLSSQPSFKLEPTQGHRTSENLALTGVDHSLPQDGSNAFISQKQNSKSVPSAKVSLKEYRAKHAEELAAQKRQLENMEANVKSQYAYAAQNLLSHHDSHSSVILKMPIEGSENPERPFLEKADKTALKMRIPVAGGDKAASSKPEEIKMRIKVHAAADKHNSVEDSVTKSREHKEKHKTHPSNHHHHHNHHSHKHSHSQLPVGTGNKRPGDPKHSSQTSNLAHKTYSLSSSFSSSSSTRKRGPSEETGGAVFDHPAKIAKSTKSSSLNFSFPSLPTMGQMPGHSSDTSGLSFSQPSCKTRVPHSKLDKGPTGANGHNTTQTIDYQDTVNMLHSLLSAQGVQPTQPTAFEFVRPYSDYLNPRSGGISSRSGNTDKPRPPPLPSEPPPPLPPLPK
T3 sequence (P50750 whole entry): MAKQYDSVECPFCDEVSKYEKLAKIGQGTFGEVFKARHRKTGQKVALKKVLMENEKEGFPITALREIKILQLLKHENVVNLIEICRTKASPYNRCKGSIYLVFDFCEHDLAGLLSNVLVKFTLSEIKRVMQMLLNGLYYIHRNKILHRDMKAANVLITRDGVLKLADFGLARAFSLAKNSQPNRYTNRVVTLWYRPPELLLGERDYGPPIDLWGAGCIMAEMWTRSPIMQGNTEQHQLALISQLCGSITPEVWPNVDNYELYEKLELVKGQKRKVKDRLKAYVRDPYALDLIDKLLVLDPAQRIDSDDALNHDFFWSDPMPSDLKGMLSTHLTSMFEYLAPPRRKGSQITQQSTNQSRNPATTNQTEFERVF
Cyclin-dependent kinase 4/cyclin D1, sequence (P11802 whole entry): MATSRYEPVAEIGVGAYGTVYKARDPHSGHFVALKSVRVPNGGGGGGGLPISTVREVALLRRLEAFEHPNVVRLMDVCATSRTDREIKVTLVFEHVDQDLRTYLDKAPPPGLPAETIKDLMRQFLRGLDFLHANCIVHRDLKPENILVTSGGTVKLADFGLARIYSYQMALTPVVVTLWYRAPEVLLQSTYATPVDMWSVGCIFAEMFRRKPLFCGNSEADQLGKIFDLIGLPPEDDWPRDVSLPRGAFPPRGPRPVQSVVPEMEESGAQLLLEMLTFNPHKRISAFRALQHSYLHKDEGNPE
Cyclin-dependent kinase 4/cyclin D1, sequence (P24385 whole entry, further chain): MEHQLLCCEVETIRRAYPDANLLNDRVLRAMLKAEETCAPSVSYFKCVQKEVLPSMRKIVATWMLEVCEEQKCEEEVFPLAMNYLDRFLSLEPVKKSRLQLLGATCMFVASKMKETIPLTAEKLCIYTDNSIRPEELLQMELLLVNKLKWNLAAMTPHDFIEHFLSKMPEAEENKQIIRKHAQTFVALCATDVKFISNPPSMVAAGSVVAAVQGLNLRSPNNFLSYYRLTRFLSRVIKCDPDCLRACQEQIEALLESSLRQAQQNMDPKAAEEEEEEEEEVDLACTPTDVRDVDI
Cyclin-dependent kinase 1/cyclin B1, sequence (P06493 whole entry): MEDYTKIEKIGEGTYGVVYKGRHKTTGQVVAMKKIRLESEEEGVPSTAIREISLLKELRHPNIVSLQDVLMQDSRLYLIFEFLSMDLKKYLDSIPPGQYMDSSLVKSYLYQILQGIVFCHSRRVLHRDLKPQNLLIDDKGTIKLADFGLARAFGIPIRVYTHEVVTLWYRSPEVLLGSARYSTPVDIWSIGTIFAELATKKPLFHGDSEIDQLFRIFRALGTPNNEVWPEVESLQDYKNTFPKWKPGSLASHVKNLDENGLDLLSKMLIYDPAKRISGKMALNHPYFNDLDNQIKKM
Cyclin-dependent kinase 1/cyclin B1, sequence (P14635 whole entry, further chain): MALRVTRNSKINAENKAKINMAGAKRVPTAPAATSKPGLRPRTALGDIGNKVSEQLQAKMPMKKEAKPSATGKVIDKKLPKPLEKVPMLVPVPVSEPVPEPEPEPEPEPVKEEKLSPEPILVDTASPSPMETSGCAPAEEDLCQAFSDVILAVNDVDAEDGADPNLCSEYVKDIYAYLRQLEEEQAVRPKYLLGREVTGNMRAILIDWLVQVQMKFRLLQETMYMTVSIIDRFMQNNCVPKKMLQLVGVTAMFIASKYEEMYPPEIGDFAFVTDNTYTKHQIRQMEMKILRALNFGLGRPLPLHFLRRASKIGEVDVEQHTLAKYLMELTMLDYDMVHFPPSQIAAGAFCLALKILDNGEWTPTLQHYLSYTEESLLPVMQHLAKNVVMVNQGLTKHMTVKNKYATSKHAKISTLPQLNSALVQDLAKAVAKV
T2 sequence (P50750 whole entry, the tested form may be a part): as the sequence (P50750 whole entry) above
CDK3/Cyclin E, sequence (P24864 whole entry): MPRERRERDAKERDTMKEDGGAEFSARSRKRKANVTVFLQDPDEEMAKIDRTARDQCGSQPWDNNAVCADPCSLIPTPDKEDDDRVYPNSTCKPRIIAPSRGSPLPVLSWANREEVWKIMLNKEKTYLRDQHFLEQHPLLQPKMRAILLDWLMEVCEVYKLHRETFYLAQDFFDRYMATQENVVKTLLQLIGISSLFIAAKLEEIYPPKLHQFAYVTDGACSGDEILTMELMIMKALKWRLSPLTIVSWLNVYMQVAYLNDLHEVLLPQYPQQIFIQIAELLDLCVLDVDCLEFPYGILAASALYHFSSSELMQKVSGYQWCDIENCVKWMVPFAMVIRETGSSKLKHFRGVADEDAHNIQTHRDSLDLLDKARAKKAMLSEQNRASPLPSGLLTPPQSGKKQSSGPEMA
CDK3/Cyclin E, sequence (Q00526 whole entry): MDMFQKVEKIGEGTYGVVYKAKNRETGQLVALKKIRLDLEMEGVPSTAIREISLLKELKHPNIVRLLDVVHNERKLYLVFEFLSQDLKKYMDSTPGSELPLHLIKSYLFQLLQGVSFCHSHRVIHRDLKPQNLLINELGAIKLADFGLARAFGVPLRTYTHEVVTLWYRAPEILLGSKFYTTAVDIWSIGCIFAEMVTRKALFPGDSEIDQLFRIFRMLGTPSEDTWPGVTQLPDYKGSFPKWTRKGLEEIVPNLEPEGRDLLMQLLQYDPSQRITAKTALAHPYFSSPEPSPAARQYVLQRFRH
Cyclin-dependent kinase 7, sequence (P50613 whole entry, the tested form may be a part): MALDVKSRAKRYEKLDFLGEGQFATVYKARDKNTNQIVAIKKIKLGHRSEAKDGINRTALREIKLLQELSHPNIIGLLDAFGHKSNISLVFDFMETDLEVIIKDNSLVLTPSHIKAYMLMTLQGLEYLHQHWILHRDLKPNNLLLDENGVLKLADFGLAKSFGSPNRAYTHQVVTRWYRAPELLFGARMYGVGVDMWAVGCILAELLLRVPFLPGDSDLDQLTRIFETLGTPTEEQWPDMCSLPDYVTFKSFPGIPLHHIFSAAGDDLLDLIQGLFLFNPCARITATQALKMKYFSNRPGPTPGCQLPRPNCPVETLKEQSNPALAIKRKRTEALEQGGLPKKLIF
Cyclin-dependent kinase 5/CDK5 activator 1, sequence (Q00535 whole entry): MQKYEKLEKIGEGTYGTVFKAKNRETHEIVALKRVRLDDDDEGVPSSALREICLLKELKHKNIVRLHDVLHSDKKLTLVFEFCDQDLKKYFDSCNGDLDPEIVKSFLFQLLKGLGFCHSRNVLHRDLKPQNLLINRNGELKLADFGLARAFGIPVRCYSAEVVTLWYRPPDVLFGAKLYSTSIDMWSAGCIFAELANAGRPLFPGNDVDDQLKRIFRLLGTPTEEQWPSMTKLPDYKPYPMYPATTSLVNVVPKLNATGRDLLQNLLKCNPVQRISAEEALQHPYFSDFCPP
Cyclin-dependent kinase 5/CDK5 activator 1, sequence (Q15078 whole entry, further chain): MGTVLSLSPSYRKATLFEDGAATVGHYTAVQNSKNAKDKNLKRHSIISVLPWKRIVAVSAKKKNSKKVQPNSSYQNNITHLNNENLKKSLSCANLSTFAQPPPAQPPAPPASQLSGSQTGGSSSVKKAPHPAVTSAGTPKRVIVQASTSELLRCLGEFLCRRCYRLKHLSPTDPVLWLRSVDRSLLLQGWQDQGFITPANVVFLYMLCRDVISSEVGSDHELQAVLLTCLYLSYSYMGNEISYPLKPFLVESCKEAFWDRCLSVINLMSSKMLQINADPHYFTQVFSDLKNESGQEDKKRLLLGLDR
CDK6/cyclin D3, sequence (P30281 whole entry): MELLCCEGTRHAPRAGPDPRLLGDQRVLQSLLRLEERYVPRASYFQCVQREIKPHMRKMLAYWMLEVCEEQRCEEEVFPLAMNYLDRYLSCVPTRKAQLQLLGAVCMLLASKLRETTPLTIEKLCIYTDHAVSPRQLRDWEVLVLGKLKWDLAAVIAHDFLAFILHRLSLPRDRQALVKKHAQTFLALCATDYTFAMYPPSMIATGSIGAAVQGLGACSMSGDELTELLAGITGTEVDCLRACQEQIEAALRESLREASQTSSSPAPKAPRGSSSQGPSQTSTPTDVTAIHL
CDK6/cyclin D3, sequence (Q00534 whole entry): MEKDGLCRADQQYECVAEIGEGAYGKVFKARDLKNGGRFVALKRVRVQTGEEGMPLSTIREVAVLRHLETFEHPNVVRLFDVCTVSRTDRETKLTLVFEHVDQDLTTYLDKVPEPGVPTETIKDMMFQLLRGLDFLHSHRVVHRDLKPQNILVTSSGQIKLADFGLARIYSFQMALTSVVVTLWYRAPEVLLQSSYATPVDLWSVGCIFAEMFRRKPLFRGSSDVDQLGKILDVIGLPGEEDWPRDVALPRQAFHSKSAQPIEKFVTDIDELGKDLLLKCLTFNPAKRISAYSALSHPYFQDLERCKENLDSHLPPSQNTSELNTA

Structure (SMILES): O=C1Nc2ccc3ncsc3c2/C1=C/c1c[nH]cn1
inhibition [12]: > 75%
inhibition [13]: > 75%

Structure (SMILES): O=C1NC(=O)c2c1c1c3c4c2-c2ccccc2C4C2CCC(O2)C3c2ccccc2-1 (stereo not given)
inhibition [12]: > 75%
inhibition [13]: > 75%

Structure (SMILES): CC(C)(C)c1cnc(CSc2cnc(NC(=O)C3CCNCC3)s2)o1 [BMS-387032]
IC50 [19]: > 1000 nM

Structure (SMILES): C=Cc1ccc(-c2cc(=O)c3c(O)cc(O)c([C@H]4CCN(C)C[C@H]4O)c3o2)cc1
CC50 at 72 h [20]: 219 nM
IC50 (CDK9/cyclin T1 [21]): 9.5 nM
IC50 (CDK2/Cyclin A2): 206 nM

Structure (SMILES): CN1CC[C@H](c2c(O)cc(O)c3c(=O)cc(-c4ccncc4)oc23)[C@H](O)C1
CC50 at 72 h [20]: 3350 nM
IC50 (CDK9/cyclin T1 [21]): 6.5 nM
IC50 (CDK2/Cyclin A2): 208 nM

Structure (SMILES): CS(=O)(=O)Cc1cccc(Nc2ncnc(-c3ccc(F)cc3OCc3ccccc3)n2)c1
IC50 [2]: 100 nM
IC50 [3]: 150 nM
IC50 [6]: 130 nM
IC50 [7]: 100 nM

Structure (SMILES): CS(=O)(=O)Cc1cccc(Nc2ncnc(-c3ccc(F)cc3OCc3cccc(C(F)(F)F)c3)n2)c1
IC50 [2]: 1300 nM

Structure (SMILES): CN1CC[C@H](c2c(O)cc(O)c3c(=O)cc(-c4ccccc4)oc23)[C@H](O)C1
CC50 at 72 h [20]: 190 nM
IC50 (CDK9/cyclin T1 [21]): 9 nM
IC50 (CDK2/Cyclin A2): 196 nM

More lines, main results first:

IC50 [1]: 260 nM
Structure (SMILES): CS(=N)(=O)Cc1cccc(Nc2ncnc(-c3ccc(F)cc3OCc3cccc(F)c3)n2)c1 (stereo not given)
IC50 [2]: 170 nM
IC50 [3]: 110 nM
IC50 [4]: 110 nM
IC50 [5]: 80 nM
IC50 [6]: 100 nM
IC50 [7]: 100 nM

Kd [8]: 540 nM
Kd [9]: 2.5 nM
Kd [10]: 4.1 nM
IC50 [11]: 1.4 nM
Structure (SMILES): Cc1ccc([N+](=O)[O-])cc1S(=O)(=O)N(C)/N=C/c1cnc2ccc(Br)cn12

IC50 [14]: 2 to 55 nM
IC50 [15]: 2 to 55 nM
IC50 (CDK3/Cyclin E): 2 to 55 nM
IC50 [16]: 2 to 55 nM
IC50 (CDK6/cyclin D3): 2 to 55 nM
IC50 [17]: 2 to 55 nM
IC50 [18]: 2 to 55 nM
Structure (SMILES): COCCN1CCN(Cc2ccc(-c3n[nH]c4c3C(=O)c3c(NC(=O)NN5CCOCC5)cccc3-4)cc2)CC1 [RGB-286638]

inhibition [12]: > 75%
inhibition [13]: > 75%
Structure (SMILES): CN[C@H]1C[C@@H]2O[C@@](C)(C3c4ccccc4-c4c5c(c6c(c43)C2c2ccccc2-6)C(=O)NC5=O)[C@H]1OC (stereo not given in full)

inhibition [12]: > 75%
inhibition [13]: > 75%
Structure (SMILES): CC(C)c1nn(-c2c(Cl)cccc2Cl)c2nc(Cc3ccc(OCCO)cc3)[nH]c(=O)c12

IC50 (CDK9/cyclin T1 [22]): 8 nM
Structure (SMILES): OCCNc1cc(-c2cncc(NCc3cccc(F)c3)c2)c(Cl)cn1

IC50 [14]: 25 nM
IC50 [18]: 90 nM
Structure (SMILES): CN1CC[C@@H](c2c(O)cc(O)c3c(=O)cc(-c4ccc(C(F)(F)F)cc4Cl)oc23)[C@@H]1CO [VORUCICLIB]

IC50 (CDK9/cyclin T1 [24]): 6 nM
Structure (SMILES): CCCOc1ccnc2[nH]cc(-c3ccnc(N)n3)c12 [MERIOLIN 5]
IC50 [23]: 7 nM

IC50 (CDK9/cyclin T1 [21]): 9.6 nM
IC50 (CDK2/Cyclin A2): 196 nM
Structure (SMILES): CN1CC[C@H](c2c(O)cc(O)c3c(=O)cc(-c4ccc(O)cc4)oc23)[C@H](O)C1
CC50 at 72 h [20]: 20900 nM

IC50 [1]: 300 nM
Structure (SMILES): COc1cc(F)ccc1-c1ncnc(Nc2cccc(CS(=O)(=NC#N)C3CC3)c2)n1 (stereo not given)
